Measurements from patent US11413280B2 (The Board of Trustees of the Leland Stanford Junior …, priority 2017, dated 2022).

Columns and labels:
[1] = tested on: FHIT; assay: Relative FHIT mRNA expression in PAECs (qPCR); type: cell-based, human; settings: PAEC, 24 hours, low doses (5-15 uM), FIG. 14
Method: Human PAEC (Promocell) or human PASMC (Promocell) were grown as monolayers in gelatin-coated dishes in a commercial EC (Promocell) or SMC (Promocell) media, respectively. Cells were passaged at 1:3 ratios and used for experiments from passages 3-8. Transformed lymphocytes (i.e., lymphoblasts) were cultured in RPMI 1640 with 10-15% FBS.
FHIT expression was modulated by RNAi in PA endothelial cells (PAEC). A pool of 4 siRNAs for BMPR2, FHIT, LCK or a non-targeting control pool (Dharmacon) were transfected into PAECs using the RNAi Max kit (Invitrogen) for 48 hours. mRNA knockdown efficiency was determined by qPCR.
For mRNA, total RNA was extracted from whole lung tissue using the RNAeasy Plus Kit (Qiagen) and reverse transcribed into cDNA using random primers with the Taqman cDNA reverse transcription Kit (Applied Biosciences) according to the manufacturer's instructions. For miR, total miR was isolated from whole lung tissue using the Taqman miRNA ABC purification Kit (Applied Biosciences) and was reverse transcribed using specific primers and the Taqman microRNA reverse transcription kit (Applied Biosciences). mRNA and miR expression levels were quantified using Taqman primer/probe sets for the target and normalized to a housekeeping control (mRNA: GAPDH; miR: RNU48). […]

[2] = tested on: hypoxia-induced experimental PAH in C57BL/6 and BMPR2+/− C57BL/6 mice; assay: Hypoxia-induced experimental PAH in wildtype and Bmpr2+/− mice; type: in vivo, mouse
Method: Right Ventricular (RV) Systolic Pressure was measured through right jugular vein catheterization and RV hypertrophy was assessed by the weight ratio of the RV to left ventricle+septum. Vessel loss and muscularization of lung vessels were visualized by MOVAT pentachrome stain. […] Arrows indicate vessel position. FIG. 3F, Representative MOVAT lung histology depicting vessel structure. Arrows indicate vessel position.
Fhit homozygous (−/−) mice were obtained from Kay F. Huebner (Ohio State University). Bmpr2+/− mice were a gift from Marlene Rabinovitch (Stanford University). Adult wildtype C57BL/6 mice, Bmpr2+/− or Fhit−/− mice at 8-10 weeks of age were housed in chronic hypoxia (10% O2) for 3 weeks, followed by a recovery period of 4 weeks in normoxia (21% O2). […] Development of experimental PH was induced in adult Sprague Dawley rats (8 weeks old, 180-220 g) through a subcutaneous dose of the VEGFR-2 inhibitor SUGEN5416 (20 mg/kg body weight), followed by exposure to chronic hypoxia (10% O2) for 3 weeks and normoxia for 5 weeks (21% O2), as previously described(12). […] Right Ventricular (RV) Systolic Pressure was measured through right jugular vein catheterization, and RV hypertrophy (RVH) was assessed by the weight ratio of the RV to left ventricle and septum (LV+S).
FIG. 24E, Representative MOVAT lung histology. Arrows indicate vessel position. FIGS. 24F-24G, Representative MOVAT lung histology of large (FIG. 24F) and small vessels (FIG. 24G) respectively. Arrows indicate vessel position.

[3] = tested on: miR17-5; assay: Relative miR17-5 expression in PAECs (qPCR); type: cell-based, human; settings: 15 μM Enzastaurin 24 hours
[4] = 3 weeks hypoxia, 5 mg/kg daily by mini-osmotic pump, C57BL/6 and BMPR2+/− mice
[5] = 3 weeks hypoxia, 15 mg/kg/day by mini-osmotic pump, Bmpr2+/− and wildtype mice

In the case of `Cn1cc(C2=C(c3cn(C4CCN(Cc5ccccn5)CC4)c4ccccc34)C(=O)NC2=O)c2ccccc21` [Enzastaurin, 3-(1-methyl-1H-indol-3-yl)-4-[1-[1-(pyridin-2-ylmethyl)piperidin-4-yl]-1H-indol-3-yl]-1H-pyrrole-2,5-dione], the “FHIT expression at low doses in vitro” value [1] was “increased”, the “Hypoxia-induced PH (changes in RVSP, RVH and pulmonary physiology)” value ([2]; 2-week treatment, 15 mg/kg/day, Bmpr2+/− and wild-type C57BL/6 mice) was “attenuated” and the “Right ventricle systolic pressure (RVSP)” value ([2]; 3 weeks hypoxia, 5 mg/kg daily by mini-osmotic pump, vs hypoxia vehicle control) was “partial reduction”. The “Full or partial muscularization of AW and AD vessels” value [2, 4] was “significantly ameliorated”, the “Loss of alveolar wall (AW) and alveolar duct (AD) pulmonary vessels” value [2, 4] was “significantly ameliorated” and the “Right ventricle (RV) hypertrophy (RV/LV+S)” value [2, 4] was “substantial reduction”. For the same compound, the “Muscularization of distal vessels” value [2, 5] was “prevented”, the RVH increase [2, 5] was “prevented” and the RVSP increase [2, 5] was “prevented”. The Vascular rarefaction [2, 5] was “prevented” and the “siFHIT-mediated increase in miR17-5 expression” value [3] was “inhibited”.
